Activity calls are given as the source filed them. The calls are words filed in the database; no cut-off is given here.
System: B16
Assay: Suppression of MMP-9 mRNA expression in mouse B16 cells at 1 uM after 24 hrs by qRT-PCR analysis
Assay type: functional, cell-based

**Q.** With `CCCCCCCCCCCCCCCCCCOC(=O)[C@H](COC(=O)CON(C)[C@@H]1O[C@H](CO)[C@@H](O[C@@H]2O[C@H](CO)[C@@H](O[C@H]3O[C@H](CO)[C@@H](O)[C@H](O)[C@H]3O)[C@H](O)[C@H]2O)[C@H](O)[C@H]1O)NC(=O)CCCCCCCCCCCCCCCCC` as the compound, how does the inhibition read?
**A.** Its inhibition is “inactive”.

**Q.** `CCCCCCCCCCCCCCCCCCOC(=O)CON(C)[C@@H]1O[C@H](CO)[C@@H](O)[C@H](O)[C@H]1O` was tested. Which inhibition did it give?
**A.** The inhibition was “inactive”.

**Q.** For `CCCCCCCCCCCCCCCCCCOC(=O)[C@H](COC(=O)CON(C)[C@@H]1O[C@H](CO)[C@H](O)[C@H](O)[C@H]1O)NC(=O)CCCCCCCCCCCCCCCCC`, which inhibition is on record?
**A.** Its inhibition is “inactive”.

System: B16
Assay: Upregulation of MMP-9 mRNA expression in mouse B16 cells at 25 uM after 24 hrs by qRT-PCR analysis
Assay type: functional, cell-based

**Q.** Which Activity does the source give for `CCCCCCCCCCCCCCCCCCOC(=O)[C@H](COC(=O)CON(C)[C@@H]1O[C@H](CO)[C@@H](O[C@@H]2O[C@H](CO)[C@H](O)[C@H](O[C@]3(C(=O)O)C[C@H](O)[C@@H](NC(C)=O)[C@H]([C@H](O)[C@H](O)CO)O3)[C@H]2O)[C@H](O)[C@H]1O)NC(=O)CCCCCCCCCCCCCCCCC` here?
**A.** The Activity was “Active”.

**Q.** Which Activity does the source give for `CCCCCCCCCCCCCCCCCCOC(=O)CON(C)[C@@H]1O[C@H](CO)[C@H](O)[C@H](O)[C@H]1O` here?
**A.** Its Activity is “Active”.

**Q.** How did the Activity turn out when `CCCCCCCCCCCCCCCCCCOC(=O)[C@H](COC(=O)CON(C)[C@@H]1O[C@H](CO)[C@@H](O)[C@H](O)[C@H]1O)NC(=O)CCCCCCCCCCCCCCCCC` was run?
**A.** The Activity was “Active”.

**Q.** How did the Activity turn out when `CCCCCCCCCCCCCCCCCCOC(=O)CON(C)[C@@H]1O[C@H](CO)[C@@H](O[C@@H]2O[C@H](CO)[C@H](O)[C@H](O)[C@H]2O)[C@H](O)[C@H]1O` was run?
**A.** The Activity was “Active”.

**Q.** Which Activity does the source give for `CCCCCCCCCCCCC/C=C/[C@H](O)[C@@H](CO[C@@H]1O[C@H](CO)[C@@H](O[C@@H]2O[C@H](CO)[C@H](O)[C@H](O[C@]3(C(=O)O)C[C@H](O)[C@@H](NC(C)=O)[C@H]([C@H](O)[C@H](O)CO)O3)[C@H]2O)[C@H](O)[C@H]1O)NC(=O)CCCCCCCCCCCCCCCCC` here?
**A.** The Activity was “Active”.

**Q.** Which Activity does the source give for `CCCCCCCCCCCCCCCCCCOC(=O)[C@H](COC(=O)CON(C)[C@@H]1O[C@H](CO)[C@@H](O[C@@H]2O[C@H](CO)[C@H](O)[C@H](O)[C@H]2O)[C@H](O)[C@H]1O)NC(=O)CCCCCCCCCCCCCCCCC` here?
**A.** Its Activity is “Active”.

**Q.** With `CCCCCCCCCCCCCCCCCCOC(=O)CON(C)[C@@H]1O[C@H](CO)[C@@H](O[C@@H]2O[C@H](CO)[C@@H](O[C@H]3O[C@H](CO)[C@@H](O)[C@H](O)[C@H]3O)[C@H](O)[C@H]2O)[C@H](O)[C@H]1O` as the compound, how does the Activity read?
**A.** Its Activity is “Active”.

System: B16
Assay: Upregulation of MMP-9 mRNA expression in mouse B16 cells at 1 uM after 24 hrs by qRT-PCR analysis
Assay type: functional, cell-based

**Q.** How did the Activity turn out when `CCCCCCCCCCCCCCCCCCOC(=O)CON(C)[C@@H]1O[C@H](CO)[C@@H](O[C@@H]2O[C@H](CO)[C@H](O)[C@H](O[C@]3(C(=O)O)C[C@H](O)[C@@H](NC(C)=O)[C@H]([C@H](O)[C@H](O)CO)O3)[C@H]2O)[C@H](O)[C@H]1O` was run?
**A.** The Activity was “Active”.
